Reference: ChEMBL document CHEMBL5303304, “EUbOPEN Chemogenomics Library - IncuCyte” (2023)

Experiments:
Type in all cases: toxicity, cell-based
HEK-293T = assay: Incucyte cell viability with HEK293T; conditions: human, 10 µM, compound concentration 10 uM
Fibroblast = assay: Incucyte cell viability with human fibroblast; conditions: 10 µM, compound concentration 10 uM
U2OS = assay: Incucyte cell viability with U2OS; conditions: human, 10 µM, compound concentration 10 uM
Also: unitless GR value; below 1 slowed growth and below 0 cell loss.

| SMILES | Growth Rate (HEK-293T; 0 h, replicate number 1) | Growth Rate (HEK-293T; 0 h, replicate number 2) | Growth Rate (HEK-293T; 18 h, replicate number 1) | Growth Rate (HEK-293T; 18 h, replicate number 2) | Growth Rate (HEK-293T; 24 h, replicate number 1) | Growth Rate (Fibroblast; 0 h, replicate number 1) | Growth Rate (Fibroblast; 6 h, replicate number 1) | Growth Rate (Fibroblast; 6 h, replicate number 2) | Growth Rate (Fibroblast; 12 h, replicate number 2) | Growth Rate (Fibroblast; 18 h, replicate number 2) | Growth Rate (Fibroblast; 24 h, replicate number 2) | Growth Rate (U2OS; 0 h, replicate number 1) | Growth Rate (U2OS; 6 h, replicate number 1) | Growth Rate (U2OS; 12 h, replicate number 1) | Growth Rate (U2OS; 12 h, replicate number 2) | Growth Rate (U2OS; 18 h, replicate number 1) | Growth Rate (U2OS; 18 h, replicate number 2) | Growth Rate (U2OS; 24 h, replicate number 1) | Growth Rate (Fibroblast; 18 h, replicate number 1) | Growth Rate (Fibroblast; 24 h, replicate number 1) | also measured |
| --- | --- | --- | --- | --- | --- | --- | --- | --- | --- | --- | --- | --- | --- | --- | --- | --- | --- | --- | --- | --- | --- |
| C[C@@H](CN1CC[C@@]2(C)c3cccc(O)c3C[C@@H]1C2(C)C)OCc1ccccc1.Cl | 0.44 | -0.22 | 0.77 | 0.95 | 0.8 | -1 | 0.03 | -0.28 | 0.93 | 1 | 0.98 | -0.32 | 0.53 | 0.61 | 0.78 | 0.81 | 0.98 | 0.79 |  |  | Growth Rate (HEK-293T; 6 h, replicate number 1): 0.31; Growth Rate (HEK-293T; 12 h, replicate number 1): 0.74; Growth Rate (HEK-293T; 24 h, replicate number 2): 0.96; Growth Rate (U2OS; 6 h, replicate number 2): 0.85 |
| CN1C(=O)Cc2ccc(-c3ccc(C[C@@H](C#N)NC(=O)[C@H]4N[C@@H]5CC[C@H]4C5)c(F)c3)cc21 | 0.62 |  | 0.94 | 0.88 | 0.87 | -1 | 0.56 | -0.72 | 0.43 | 0.5 | 0.85 |  | 0.49 |  |  |  |  |  | 0.72 | 0.86 | Growth Rate (HEK-293T; 12 h, replicate number 1): 0.89; Growth Rate (HEK-293T; 12 h, replicate number 2): 0.82; Growth Rate (HEK-293T; 24 h, replicate number 2): 0.95; Growth Rate (Fibroblast; 12 h, replicate number 1): 0.65 |
| COc1cc(-c2cn(C)c(=O)c3cnccc23)c(OC)cc1CN(C)C | 0.44 |  | 0.77 | 0.68 | 0.68 |  | 0.79 | 0.69 | 0.23 | 0.53 | 0.5 | 0.29 | 0.38 | 0.8 |  |  |  | 0.97 | 0.8 | 0.8 | Growth Rate (HEK-293T; 6 h, replicate number 2): 0.24; Growth Rate (HEK-293T; 12 h, replicate number 2): 0.4; Growth Rate (HEK-293T; 24 h, replicate number 2): 0.77; Growth Rate (Fibroblast; 12 h, replicate number 1): 0.84 |
| COc1cc(-c2cn(C)c(=O)c3cnccc23)cc(OC)c1CN(C)C | 0.56 |  | 0.85 | 0.89 | 0.92 | 0.17 | 0.2 | -0.34 | 0.15 | 0.6 | 0.85 | 0.83 | 0.87 | 0.86 | 0.85 |  |  | 0.97 | 0.56 | 0.58 | Growth Rate (HEK-293T; 6 h, replicate number 1): 0.78; Growth Rate (HEK-293T; 6 h, replicate number 2): 0.89; Growth Rate (Fibroblast; 12 h, replicate number 1): 0.48; Growth Rate (U2OS; 6 h, replicate number 2): 0.61 |
| CSc1nc2c(c(=O)n(C)c(=O)n2C)n1C | 0.12 |  |  | 1 |  | -1 | 0.03 | -0.57 |  |  | 0.92 | 0.57 | 0.84 |  | 0.74 |  | 0.86 |  | 0.87 | 0.71 | Growth Rate (HEK-293T; 6 h, replicate number 2): -0.14; Growth Rate (HEK-293T; 12 h, replicate number 2): 0.78; Growth Rate (Fibroblast; 0 h, replicate number 2): -0.52; Growth Rate (Fibroblast; 12 h, replicate number 1): 0.58; Growth Rate (U2OS; 6 h, replicate number 2): 0.49; Growth Rate (U2OS; 24 h, replicate number 2): 0.97 |
| COCCOCn1c(S(C)(=O)=O)nc2c1c(=O)n(C)c(=O)n2C | 0.35 | 0.7 | 0.74 | 0.92 | 0.86 | -1 | -0.48 | -0.97 | 0.03 | 0.24 | 0.7 | 0.81 | 0.11 | 0.55 |  | 0.93 |  | 0.76 | 0.05 | 0.45 | Growth Rate (HEK-293T; 24 h, replicate number 2): 0.9; Growth Rate (Fibroblast; 12 h, replicate number 1): 0 |
| Cc1nnc2n1-c1sc3c(c1C(c1ccccc1Cl)=NC2)C[C@H](C(=O)N1CCOCC1)C3 | -0.2 | -0.35 |  |  |  |  |  | -0.71 | 0.19 | 0.64 | 0.94 |  | 0.8 |  | 0.83 |  | 0.93 | 0.94 |  |  | Growth Rate (HEK-293T; 6 h, replicate number 1): 0.78; Growth Rate (U2OS; 24 h, replicate number 2): 0.93 |
| Cc1cc(CN)cc(C)c1-c1ncn(C)c1-c1cncn1C.Cl | -0.38 | 0.26 | 0.98 |  |  | -1 | 0.96 | -0.33 | 0.59 | 0.77 | 0.86 |  |  |  | 0.69 |  | 0.99 |  |  |  |  |
| CO[C@H](C)CN1CC[C@@]2(C)c3ccc(O)cc3C[C@@H]1C2(C)C.Cl | 0.75 | 0.63 |  |  |  |  | 0.46 | 0.74 |  |  |  |  | 0.63 | 0.93 | 0.77 | 0.87 |  | 0.87 | 0.79 | 0.96 | Growth Rate (Fibroblast; 0 h, replicate number 2): 0.54; Growth Rate (Fibroblast; 12 h, replicate number 1): 0.6; Growth Rate (U2OS; 0 h, replicate number 2): 0.71; Growth Rate (U2OS; 6 h, replicate number 2): 0.94; Growth Rate (U2OS; 24 h, replicate number 2): 0.82 |
| CC1CCN(C(=O)[C@H](CCn2cccc2C#N)NS(=O)(=O)c2cccc3[nH]ccc23)CC1 | -0.16 | 0.25 |  |  |  |  |  |  | 0.9 |  | 0.84 | 0.73 | 0.98 | 0.91 | 0.81 | 0.99 | 0.91 | 0.98 |  |  | Growth Rate (HEK-293T; 12 h, replicate number 1): 0.92; Growth Rate (U2OS; 0 h, replicate number 2): 0.6; Growth Rate (U2OS; 24 h, replicate number 2): 0.97 |
| COCCN(C)c1ccc(NC(=O)/C=C(\C)c2ccc3ccccc3c2)c(C(=O)O)c1 | 0.87 | -0.37 |  |  |  |  |  |  |  |  |  | 0.79 | 0.9 | 0.72 | 0.92 | 0.88 |  | 0.91 |  |  | Growth Rate (Fibroblast; 0 h, replicate number 2): -0.29 |
| CC(C)(c1ccc(OCc2cccc(COc3ccc(C(=N)N)cc3)c2)cc1)c1ccc(O[C@@H]2O[C@H](C(=O)O)[C@@H](O)[C@H](O)[C@H]2O)cc1.O=C(O)C(F)(F)F | 0.51 | -0.08 | 0.87 |  | 1 | -1 | 0.34 |  |  |  | 0.92 | 0.36 | 0.61 | 0.97 | 0.68 | -0.41 | 0.89 |  |  | 0.88 | Growth Rate (U2OS; 0 h, replicate number 2): -0.17; Growth Rate (U2OS; 6 h, replicate number 2): 0.56 |
| C/C(=C\C(=O)Nc1ccccc1C(=O)[O-])c1ccc2ccccc2c1.[Na+] | 0.79 | 0.69 |  |  |  |  | 0.57 | -0.21 | 0.94 |  |  | 0.38 | 0.69 | 0.95 |  | 0.83 |  | 0.94 | 0.97 | 0.83 | Growth Rate (Fibroblast; 0 h, replicate number 2): -0.44 |
| CCn1c(CNC(=O)c2nc(Cl)cnc2N)[n+](CC)c2ccc(C(=O)N(C)CCN(C)C)cc21.[Cl-] | 0.65 | 0.44 |  | 0.77 |  |  |  | -0.24 | 0.59 | 0.7 | 0.96 | 0.81 | 0.28 | 0.84 |  |  |  | 0.84 |  |  | Growth Rate (HEK-293T; 6 h, replicate number 2): 0.55; Growth Rate (HEK-293T; 12 h, replicate number 2): 0.57; Growth Rate (HEK-293T; 24 h, replicate number 2): 0.84; Growth Rate (Fibroblast; 0 h, replicate number 2): -0.38; Growth Rate (U2OS; 6 h, replicate number 2): 0.97 |
| N=C(N)NCCC[C@H](NC(=O)C(c1ccccc1)c1ccccc1)C(=O)NCc1ccc(CNC(N)=O)cc1.O=C(O)C(F)(F)F | 0.26 |  |  |  |  | -1 |  | -0.57 | 0.52 | 0.75 | 0.58 |  | 0.97 |  | 0.88 |  |  | 0.96 |  | 0.9 |  |
| N=C(N)NCCC[C@@H](NC(=O)C(c1ccccc1)c1ccccc1)C(=O)NCc1ccc(CNC(N)=O)cc1.O=C(O)C(F)(F)F | 0.56 |  |  | 0.96 |  | -1 | 0.82 |  | 0.86 | 0.94 | 0.91 | 0.07 | 0.44 | 0.7 | 0.87 | 0.92 | 0.99 | 0.86 |  |  | Growth Rate (HEK-293T; 12 h, replicate number 2): 0.76; Growth Rate (HEK-293T; 24 h, replicate number 2): 0.9; Growth Rate (Fibroblast; 0 h, replicate number 2): 0.49 |
